Data taken from patent US9212167B2, “Mitochondrial targeted stimulators of apoptosis” (The Rockefeller University, priority 2011, dated 2015).

What was measured:
Assay type in all cases: cell-based
[1] = test system: HeLa cells; assay: Alamar Blue cell viability, HeLa cells; conditions: ten-point dose response, up to 50 μM, FIG. 1
Experimental: (§1) The compound described above as Compound 15 was tested for its effect on the viability of cells using Alamar Blue staining. This reagent takes advantage of the conversion by healthy cells of a non-fluorescent molecule, resazurin, to the brightly red-fluorescent resorufin. The assay was performed in 384 well plate format, and the fluorescence (560 nm Ex/590 nm Em) was detected and quantified using a Perkin-Elmer Envision plate reader. Four samples were compared. Samples were the compound identified as 2PA in paragraph [0014] (i.e. just “A” without “L” or “B”), a dimer of 2PA (i.e. A-L-A, wherein L is C6H4):
(§2) PK11195 alone and Compound 15. Ten-point dose responses were performed in both HeLa and T98G cells to determine the concentration at which each compound was effective.

[2] = test system: T98G cells; assay: Alamar Blue cell viability, T98G cells; conditions: ten-point dose response, up to 50 μM, FIG. 2
Experimental: as §1, §2

[3] = test system: HeLa cells; assay: Count of apoptotic HeLa cells with and without pan-caspase inhibitor ZVAD-FMK; conditions: 40 μM, 3 or 6 hours
Experimental: To verify the induction of apoptosis by Compound 15, HeLa cells were treated with 40 μM of the compound and incubated for 3 or 6 hours in the presence and absence of pan-caspase inhibitor ZVAD-FMK. Apoptotic cells were counted at the indicated times in each condition.

Compound	cell killing (percent survival as a function of concentration) [1]	cell killing (percent survival as a function of concentration) [2]	induction of apoptosis (apoptotic cells counted) ([3]; absence of ZVAD-FMK)	induction of apoptosis (apoptotic cells counted) with caspase inhibitor ([3]; presence of pan-caspase inhibitor ZVAD-FMK)
C#CCOC(C)C(NC(=O)C(C)NC)C(=O)N1CCCC1Cn1nnnc1Sc1ccccc1 (stereo not shown) [monomer]	do not kill at any concentration	do not kill at any concentration	–	–
CNC(C)C(=O)NC(C(=O)N1CCCC1Cn1nnnc1Sc1ccccc1)C(C)OCC#CC#CCOC(C)C(NC(=O)C(C)NC)C(=O)N1CCCC1Cn1nnnc1Sc1ccccc1 (stereo not shown) [dimer]	do not kill at any concentration	do not kill at any concentration	–	–
CN[C@@H](C)C(=O)N[C@H](C(=O)N1CCC[C@H]1Cn1nnnc1Sc1ccccc1)C(C)OCc1cn(CCOCCOCCOCCNC(=O)c2cc3ccccc3c(-c3ccccc3Cl)n2)nn1 (stereo partly shown) [Compound 15]	kills both HeLa and T98G cells effectively	kills both HeLa and T98G cells effectively	can induce cell death	the caspase inhibitor can prevent this induction of cell death
CCC(C)N(C)C(=O)c1cc2ccccc2c(-c2ccccc2Cl)n1 (stereo not shown) [PK11195]	do not kill at any concentration	do not kill at any concentration	–	–
